Key:
CYP19 (aromatase) = molecular target: T1, CYP19 (aromatase) (Homo sapiens, UniProt P11511); test: in vitro; conditions: recombinant human microsomal CYP19, probe MFC
T1 sequence (P11511 whole entry): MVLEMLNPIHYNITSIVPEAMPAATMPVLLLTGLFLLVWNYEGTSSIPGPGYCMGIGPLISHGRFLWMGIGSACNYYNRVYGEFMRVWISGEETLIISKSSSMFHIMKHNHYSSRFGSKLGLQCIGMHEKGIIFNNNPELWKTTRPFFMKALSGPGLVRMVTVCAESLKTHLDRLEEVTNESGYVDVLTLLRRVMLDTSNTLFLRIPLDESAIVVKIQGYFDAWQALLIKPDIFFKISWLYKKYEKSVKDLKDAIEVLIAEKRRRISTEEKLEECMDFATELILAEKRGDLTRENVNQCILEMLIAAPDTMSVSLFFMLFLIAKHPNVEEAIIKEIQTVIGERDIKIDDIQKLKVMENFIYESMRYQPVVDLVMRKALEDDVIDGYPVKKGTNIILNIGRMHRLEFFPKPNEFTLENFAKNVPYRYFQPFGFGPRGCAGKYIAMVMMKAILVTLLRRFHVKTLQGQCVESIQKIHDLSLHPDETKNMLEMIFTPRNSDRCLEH
Description: Inhibition of recombinant human microsomal CYP19 at 50 uM using MFC as substrate measured after 30 mins by fluorometric analysis relative to control

Aromatase = molecular target: T2, Aromatase (Homo sapiens, UniProt P11511)
T2 sequence (P11511 whole entry): T1 sequence (P11511 whole entry)
Description: Inhibition of recombinant human microsomal CYP19 using MFC as substrate measured after 30 mins by fluorometric analysis

Estrogen receptor beta [1] = molecular target: T3, Estrogen receptor beta (Homo sapiens, UniProt Q92731); test: Displacement of fluorescent ES2 from recombinant human ERbeta at 100 uM after 2 hrs in absence of light by fluorometric analysis relative to control
[2] = molecular target: T4, Estrogen receptor (Homo sapiens) (UniProt P03372); test: Displacement of fluorescent ES2 from recombinant human ERalpha at 100 uM after 2 hrs in absence of light by fluorometric analysis relative to control
T4 sequence (whole entry): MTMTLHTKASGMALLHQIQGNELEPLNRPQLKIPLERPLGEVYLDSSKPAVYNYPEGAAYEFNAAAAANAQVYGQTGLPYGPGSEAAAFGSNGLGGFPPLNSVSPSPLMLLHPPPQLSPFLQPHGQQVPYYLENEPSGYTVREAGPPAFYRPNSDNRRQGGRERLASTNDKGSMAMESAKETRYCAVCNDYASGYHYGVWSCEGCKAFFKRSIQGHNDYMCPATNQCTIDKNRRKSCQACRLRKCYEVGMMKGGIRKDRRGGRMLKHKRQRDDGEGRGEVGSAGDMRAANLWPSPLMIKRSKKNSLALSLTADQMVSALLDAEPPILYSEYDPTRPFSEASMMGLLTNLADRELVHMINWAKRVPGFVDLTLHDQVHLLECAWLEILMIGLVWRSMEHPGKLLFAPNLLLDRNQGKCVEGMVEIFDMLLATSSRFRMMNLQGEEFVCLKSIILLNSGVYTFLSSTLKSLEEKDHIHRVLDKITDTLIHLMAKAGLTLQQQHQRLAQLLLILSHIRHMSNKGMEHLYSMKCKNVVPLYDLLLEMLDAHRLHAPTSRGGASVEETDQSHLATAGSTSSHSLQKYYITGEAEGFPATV

Estrogen receptor = molecular target: T5, Estrogen receptor (Homo sapiens, UniProt P03372)
T5 sequence (P03372 whole entry): T4 sequence (whole entry)
Description: Displacement of fluorescent ES2 from recombinant human ERalpha after 2 hrs in absence of light by fluorometric analysis

Estrogen receptor beta [3] = molecular target: T3, Estrogen receptor beta
Description: Displacement of fluorescent ES2 from recombinant human ERbeta after 2 hrs in absence of light by fluorometric analysis

T3 sequence (Q92731 whole entry): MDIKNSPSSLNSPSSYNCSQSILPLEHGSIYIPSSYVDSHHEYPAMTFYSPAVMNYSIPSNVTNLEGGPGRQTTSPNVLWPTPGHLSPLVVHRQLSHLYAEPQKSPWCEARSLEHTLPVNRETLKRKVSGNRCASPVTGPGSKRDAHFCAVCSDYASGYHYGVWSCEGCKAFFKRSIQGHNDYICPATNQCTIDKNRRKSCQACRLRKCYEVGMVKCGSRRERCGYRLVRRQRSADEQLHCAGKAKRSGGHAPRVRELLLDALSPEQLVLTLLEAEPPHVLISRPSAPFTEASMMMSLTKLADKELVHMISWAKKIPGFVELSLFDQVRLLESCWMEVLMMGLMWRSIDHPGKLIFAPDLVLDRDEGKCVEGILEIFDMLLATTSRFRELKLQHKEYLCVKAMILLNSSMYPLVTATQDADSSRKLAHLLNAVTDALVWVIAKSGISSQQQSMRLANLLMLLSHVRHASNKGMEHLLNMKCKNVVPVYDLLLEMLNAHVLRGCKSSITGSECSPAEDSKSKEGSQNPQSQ

CCC(=C(c1ccc(O)cc1)c1ccc(OCCN)cc1)c1ccccc1
inhibition at 0.5 h, 50 µM (CYP19 (aromatase)): > 90%

CC(=C(c1ccc(O)cc1)c1ccc(OCC(N)=O)cc1)c1ccc([N+](=O)[O-])cc1
IC50 (Aromatase): 9720 nM | inhibition (Estrogen receptor beta [1]): 0% | inhibition [2]: 0% | inhibition at 0.5 h, 50 µM (CYP19 (aromatase)): > 90%

CC(=C(c1ccc(N)cc1)c1ccc(NCC(N)=O)cc1)c1ccc([N+](=O)[O-])cc1
IC50 (Aromatase): 645 nM | EC50 (Estrogen receptor): 164 nM | EC50 (Estrogen receptor beta [3]): 218 nM | inhibition at 0.5 h, 50 µM (CYP19 (aromatase)): > 90%

CCC(=C(c1ccc(N)cc1)c1ccc(N)cc1)c1ccc([N+](=O)[O-])cc1
inhibition at 0.5 h, 50 µM (CYP19 (aromatase)): > 90%

CC/C(=C(/c1ccc(O)cc1)c1ccc(OCC(N)=O)cc1)c1ccccc1
IC50 (Aromatase): 9260 nM | inhibition (Estrogen receptor beta [1]): 71% | inhibition [2]: 57% | inhibition at 0.5 h, 50 µM (CYP19 (aromatase)): > 90%

CC(=C(c1ccc(O)cc1)c1ccc(O)cc1)c1ccc([N+](=O)[O-])cc1
inhibition (Estrogen receptor beta [1]): 55% | inhibition [2]: 19% | inhibition at 0.5 h, 50 µM (CYP19 (aromatase)): 75%

CCC(=C(c1ccc(O)cc1)c1ccc(O)cc1)c1ccc(N)cc1
inhibition at 0.5 h, 50 µM (CYP19 (aromatase)): > 90%

CCC(=C(c1ccc(N)cc1)c1ccc(NCC(N)=O)cc1)c1ccc([N+](=O)[O-])cc1
IC50 (Aromatase): 287 nM | EC50 (Estrogen receptor): 451 nM | EC50 (Estrogen receptor beta [3]): 346 nM | inhibition at 0.5 h, 50 µM (CYP19 (aromatase)): > 90%

CC(=C(c1ccc(N)cc1)c1ccc(N)cc1)c1ccc(N)cc1
inhibition (Estrogen receptor beta [1]): 77% | inhibition [2]: 31% | inhibition at 0.5 h, 50 µM (CYP19 (aromatase)): > 90%

CCC(=C(c1ccc(O)cc1)c1ccc(OCC(N)=O)cc1)c1ccc([N+](=O)[O-])cc1
inhibition (Estrogen receptor beta [1]): 0% | inhibition [2]: 0% | inhibition at 0.5 h, 50 µM (CYP19 (aromatase)): 76%

CC(=C(c1ccc(O)cc1)c1ccc(O)cc1)c1ccc(N)cc1
inhibition at 0.5 h, 50 µM (CYP19 (aromatase)): > 90%

CCC(=C(c1ccc(O)cc1)c1ccc(O)cc1)c1ccccc1
inhibition at 0.5 h, 50 µM (CYP19 (aromatase)): > 90%

CC/C(=C(\c1ccc(O)cc1)c1ccc(OCCN)cc1)c1ccccc1
inhibition at 0.5 h, 50 µM (CYP19 (aromatase)): > 90%

CCC(=C(c1ccc(N)cc1)c1ccc(N)cc1)c1ccc(N)cc1
inhibition (Estrogen receptor beta [1]): 76% | inhibition [2]: 25% | inhibition at 0.5 h, 50 µM (CYP19 (aromatase)): > 90%

CC(=C(c1ccc(N)cc1)c1ccc(N)cc1)c1ccc([N+](=O)[O-])cc1
inhibition at 0.5 h, 50 µM (CYP19 (aromatase)): > 90%

CC/C(=C(/c1ccc(O)cc1)c1ccc(OCCN)cc1)c1ccccc1
inhibition at 0.5 h, 50 µM (CYP19 (aromatase)): > 90%

CCC(=C(c1ccc(O)cc1)c1ccc(O)cc1)c1ccc([N+](=O)[O-])cc1
inhibition (Estrogen receptor beta [1]): 66% | inhibition [2]: 40% | inhibition at 0.5 h, 50 µM (CYP19 (aromatase)): 78%
